From patent US4900730A, “Preparation which promotes the absorption of peptides” (priority 1981, dated 1990)
No end group written: not given here.

Columns and labels:
[1] = Rectal circulation with fatty acids as promoters (Example 15, Example 1 repeated)
Procedure: Absorption effects under conditions with various tonicities were examined.
The experiment was conducted in the following manner.
(The units in the Table are percents.)

[2] = Penicillin suppositories, concentration in plasma (Example 34); format: in vivo, S.D. male rats; conditions: Four fold tonicity suppository with 3.6% NaCl and 5% sodium adipate, intrarectal
Procedure: The dispersion was filled in a silicone tube (inner diameter 2.5 mm) to produce a rod-like suppository of 50 mg as a control suppository.
These suppositories were intrarectally administered to S.D. male rats (weighing about 250 g) and the concentration of Carbenicillin in blood was measured.
The concentration of Carbenicillin in blood was determined on sampled plasma by the use of Sarcina luteus ATCC 9341 in accordance with the conventional method.
The same experiment was effected on Dicloxacillin.Na.

[3] = rat, in vivo
Procedure: (§1) The experiment was conducted in the following manner. Sprague Dawley rats (male), weighing 200 to 300 g, were narcotized (after fast for 20 hours) with pentobarbital (50 mg/kg) and thereafter subjected to hypoabdominal incision for a first cannulation at a position about 1.5 cm from anus and also another cannulation at a position 5 cm above the first cannulation. Subsequently, the rectum was internally washed with about 50 ml of isotonic sodium chloride solution kept at 38° C., and samples each of 10 ml were circulated through rectum for 5 minutes (2 ml/minute) to make the concentration in the system constant. Then, 5 ml of each sample was circulated at a flow rate of 2 ml/minute, and samples each of 0.05 ml were collected at intervals of 10 minutes from 0 minute. Each sample was diluted to 5 ml with distilled water and the quantity of medicine disappeared by absorption was determined by UV spectrophotometer.
Quantities of 0.5 W/W % Cefmetazole.Na disappeared by absorption under isotonic and three-fold tonic conditions were determined, respectively, using sodium malate, sodium pyruvate, sodium phosphenolpyruvate, sodium β-hydroxybutyrate, sodium β-hydroxy glutarate, and sodium 2-phospho-D-glycerate.

[4] = Cephalothin concentration in blood after injection through anus (Example 6); format: in vivo, rat; conditions: with 6% sodium chloride and 1.0% disodium EDTA mono-ethylate vs 2% Cephalothin.Na control
Procedure: Using 2% solution of Cephalothin.Na (in 0.1M Tris-HCl buffer, pH 8.0) as Control, an injection agent was prepared by adding 6% sodium chloride and 1.0% disodium EDTA mono-ethylate to said solution.

[5] = Rectal circulation: Cephalothin disappeared by absorption (Examples 10-14, 16-18)
Procedure: The experiments were conducted similarly as in Example 1. […] Each sample was diluted and the quantity of Cephalothin disappeared was determined by UV-spectrophotometer of high-speed liquid chromatography.

[6] = rabbit, in vivo, 250 mg/kg
[7] = rat, in vivo; remark: listed apart in the source
Procedure: as §1

[8] = Calcium concentration after intrarectal calcitonin preparation, relative effect (Example 8); format: in vivo, SD rats; conditions: after one hour, CVP and CT set at standard value of 1
[9] = Table 9, fatty acid 0.1 W/V %, Example 1 repeated, X 1
[10] = Table 9, fatty acid 0.1 W/V %, Example 1 repeated, X 4

## CCCC(=O)O [Butyric acid, butyric acid]
[1]; rat, in vivo
  medicine disappeared by absorption, Osmotic pressure X 1: 9.9 percents
  medicine disappeared by absorption, Osmotic pressure X 2: 17.1 percents
  medicine disappeared by absorption, Osmotic pressure X 4: 21.0 percents

## CC1(C)S[C@@H]2[C@H](NC(=O)C(C(=O)O)c3ccccc3)C(=O)N2[C@H]1C(=O)O (some centres unmarked) [Carbenicillin.Na]
[2]
  Concentration in plasma 5 min.: 5000 ng/mL
  Concentration in plasma 10 min.: 14700 ng/mL
  Concentration in plasma 20 min.: 11500 ng/mL
  Concentration in plasma 30 min.: 8900 ng/mL
  Concentration in plasma 60 min.: 5100 ng/mL
  Concentration in plasma 90 min.: 3100 ng/mL
  Concentration in plasma 120 min.: 1600 ng/mL

## CO[C@@]1(NC(=O)CSCC#N)C(=O)N2C(C(=O)O)=C(CSc3nnnn3C)CS[C@@H]21 [Cefmetazole.Na]
[3]
  quantity of Cefmetazole.Na disappeared by absorption: practically negligible

## CC(=O)OCC1=C(C(=O)O)N2C(=O)[C@@H](NC(=O)Cc3cccs3)[C@H]2SC1 [Cephalothin.Na, reference compound]
[4]
  concentrations in blood: significantly increased
[5]; rat, in vivo
  Cephalothin disappeared by absorption, Osmotic pressure (%) X 1: 1.2%
  Cephalothin disappeared by absorption, Osmotic pressure (%) X 2: 1.6%
  Cephalothin disappeared by absorption, Osmotic pressure (%) X 4: 3.1%
  Cephalothin disappeared by absorption, Osmotic pressure X 1: 1.2 percents
  Cephalothin disappeared by absorption, Osmotic pressure X 2: 1.6 percents
  Cephalothin disappeared by absorption, Osmotic pressure X 4: 3.1 percents

## Cc1onc(-c2c(Cl)cccc2Cl)c1C(=O)N[C@@H]1C(=O)N2[C@@H]1SC(C)(C)[C@@H]2C(=O)O [Dicloxacillin.Na]
[2]
  Concentration in plasma 5 min.: 4500 ng/mL
  Concentration in plasma 10 min.: 15400 ng/mL
  Concentration in plasma 20 min.: 10500 ng/mL
  Concentration in plasma 30 min.: 7500 ng/mL
  Concentration in plasma 60 min.: 4600 ng/mL
  Concentration in plasma 90 min.: 2900 ng/mL
  Concentration in plasma 120 min.: 900 ng/mL

## CCCCCCCCCC(=O)[O-].[Na+] [Sodium caprate, sodium caprate]
[1]; [9]
  medicine disappeared by absorption, Osmotic pressure X 1: 5.2 percents
[1]; [10]
  medicine disappeared by absorption, Osmotic pressure X 4: 8.6 percents

## CCCCCC(=O)[O-].[Na+] [Sodium caproate, sodium caproate]
[1]; [9]
  medicine disappeared by absorption, Osmotic pressure X 1: 10.4 percents
[1]; Table 9, fatty acid 0.1 W/V %, Example 1 repeated, X 2
  medicine disappeared by absorption, Osmotic pressure X 2: 14.7 percents
[1]; [10]
  medicine disappeared by absorption, Osmotic pressure X 4: 17.2 percents

## CCCCCCCC(=O)[O-].[Na+] [Sodium caprylate, sodium caprylate]
[1]; [9]
  medicine disappeared by absorption, Osmotic pressure X 1: 5.8 percents
[1]; [10]
  medicine disappeared by absorption, Osmotic pressure X 4: 13.0 percents

## CCCCCCCCCCCC(=O)[O-].[Na+] [Sodium laurate, sodium laurate]
[1]; [9]
  medicine disappeared by absorption, Osmotic pressure X 1: 3.9 percents
[1]; [10]
  medicine disappeared by absorption, Osmotic pressure X 4: 6.5 percents

## O=C(O)CCC(=O)O [Succinic acid]
[5]; rat, in vivo
  Cephalothin disappeared by absorption, Osmotic pressure (%) X 1: 8.2%
  Cephalothin disappeared by absorption, Osmotic pressure (%) X 2: 13.1%
  Cephalothin disappeared by absorption, Osmotic pressure (%) X 4: 24.0%

## O=C(O)/C=C(\CC(=O)O)C(=O)O [Trans-aconitic acid, trans-aconitic acid]
[5]; Table 4, promoter 0.1% W/V, 0.1% W/V Cephalothin.Na, four-fold tonic, after one hour
  Cephalothin disappeared by absorption, Osmotic pressure (%) X 4: 27.8%
[5]; Table 4, promoter 0.1% W/V, 0.1% W/V Cephalothin.Na, isotonic, after one hour
  Cephalothin disappeared by absorption, Osmotic pressure (%) X 1: 10.5%
[5]; Table 4, promoter 0.1% W/V, 0.1% W/V Cephalothin.Na, two-fold tonic, after one hour
  Cephalothin disappeared by absorption, Osmotic pressure (%) X 2: 18.6%

## CCC(=O)C(=O)O [α-ketobutyric acid]
[5]; rat, in vivo
  Cephalothin disappeared by absorption, Osmotic pressure (%) X 1: 11.2%
  Cephalothin disappeared by absorption, Osmotic pressure (%) X 2: 18.3%
  Cephalothin disappeared by absorption, Osmotic pressure (%) X 4: 30.9%

## O=C(O)CCC(=O)C(=O)O [α-ketoglutaric acid]
[5]; Table 5, promoter 0.1% W/V, 0.1% W/V Cephalothin.Na, four-fold tonic, one hour
  Cephalothin disappeared by absorption, Osmotic pressure (%) X 4: 25.6%

## CCCC(=O)C(=O)O [α-ketovaleric acid]
[5]; rat, in vivo
  Cephalothin disappeared by absorption, Osmotic pressure (%) X 1: 9.8%
  Cephalothin disappeared by absorption, Osmotic pressure (%) X 2: 14.7%
  Cephalothin disappeared by absorption, Osmotic pressure (%) X 4: 23.2%

## N[C@@H](CC(C(=O)O)C(=O)O)C(=O)O [γ-carboxyglutamic acid]
[5]; rat, in vivo
  Cephalothin disappeared by absorption, Osmotic pressure X 1: 13.1 percents
  Cephalothin disappeared by absorption, Osmotic pressure X 2: 24.6 percents
  Cephalothin disappeared by absorption, Osmotic pressure X 4: 31.4 percents

## NCCCCCC(=O)O [ε-aminocaproic acid]
[5]; rat, in vivo
  Cephalothin disappeared by absorption, Osmotic pressure X 1: 7.1 percents
  Cephalothin disappeared by absorption, Osmotic pressure X 2: 11.8 percents
  Cephalothin disappeared by absorption, Osmotic pressure X 4: 17.0 percents

## Colistin methane sulfonate sodium [Colistin methanesulfonate sodium]
[6]
  Excreted amount in urine (0-6 hr, %): 1.0%

## Polymyxin B
[6]
  Excreted amount in urine (0-6 hr, %): 0.8%

## Tuberactinomycin
[7]
  absorptions through rectum: increased by the presence of EDTA.2Na and sodium chloride

## calcitonin (CGNLSTCMLGTYTQDFNKFHTFPQTAIGVGAP; ends and bridges not checked; cysteine pairing not given here; UniProt P01258 85-116, looked up) [CT]
[8]; glucose 0.25M
  relative effect on calcium concentration, Isotonic: 1
[8]; glucose 1.5M
  relative effect on calcium concentration, 6-fold tonic: 1.67
[8]; glucose […]
  relative effect on calcium concentration, 3-fold tonic: 1.05
